Laboratory results taken from US9796719B2, “Compounds and pharmaceutical compositions thereof for the treatment of inflammatory disorders” (GALAPAGOS NV, priority 2013, dated 2017).

target: hENPP2 (UniProtKB/SwissProt Sequence ref Q13822) (Homo sapiens (Human), UniProt Q13822); experiment: LPC hENPP2 assay (choline release, LPC as substrate); assay type: biochemical
Description: The principle of the assay consists in quantifying the released choline with an enzymatic method using choline oxidase and peroxidase. Choline oxydation by choline oxydase releases betaine and peroxide. The latter is quantified in presence of HRP that converts the peroxide detection agent TOOS and 4-aminoantipyrine into quinoneimine dye. The appearance of quinoneimine dye is measured spectrophotometrically at 555 nm and is proportional to the amount of choline released by ENPP2. Inhibition of ENPP2 will result in a decrease of the signal.
The reaction is terminated and choline quantified by the addition of a 25 μL of a mixture containing 0.6 U/mL of choline oxidase, 0.6 U/mL of peroxydase, 1.8 mM TOOS, 1.2 mM amino-antipyrine, 20 mM EGTA (stop-developer solution) diluted in the buffer described above. […] is read on the Envision after an incubation of 30 min at room temperature (Excitation 555 nm, excitation light=70%).

Row | SMILES | IC50
1 | CCc1nc2ccc(N3CCC4(CN(C)C(=O)O4)C3)nn2c1N(C)c1nc(-c2ccc(F)cc2)cs1 (stereo not shown) [Cpd 119, 7-(2-ethyl-3-((4-(4-fluorophenyl)thiazol-2-yl)(methyl)amino)imidazo[1,2-b]pyridazin-6-yl)-3-methyl-1-oxa-3,7-diazaspiro[4.4] nonan-2-one] | 100 to 500 nM
2 | CCc1nc2ccc(N3CCC4(CN(C)C(=O)O4)C3)nn2c1N(C)c1nc(-c2ccc(F)cc2)c(CO)s1 (stereo not shown) [Cpd 120, 7-(2-ethyl-3-((4-(4-fluorophenyl)-5-(hydroxymethyl)thiazol-2-yl)(methyl)amino)imidazo[1,2-b]pyridazin-6-yl)-3-methyl-1-oxa-3,7-diazaspiro[4.4] nonan-2-one] | 100 to 500 nM
3 | CCc1nc2ccc(N3CCC4(CC(=O)NC4=O)C3)nn2c1N(C)c1nc(-c2ccc(F)cc2)cs1 (stereo not shown) [Cpd 121, 7-(2-ethyl-3-((4-(4-fluorophenyl)thiazol-2-yl)(methyl)amino)imidazo[1,2-b]pyridazin-6-yl)-2,7-diazaspiro[4.4] nonane-1,3-dione] | > 1000 nM
4 | CCc1nc2ccc(N3CC[C@H](C#N)C3)nn2c1N(C)c1nc(-c2ccc(F)cc2)cs1 [Cpd 128, (S)-1-(2-ethyl-3-((4-(4-fluorophenyl)thiazol-2-yl)(methyl)amino)imidazo[1,2-b]pyridazin-6-yl)pyrrolidine-3-carbonitrile] | > 1000 nM
5 | CCc1nc2ccc(N3CCC(NCC(=O)OC)C3)nn2c1N(C)c1nc(-c2ccc(F)cc2)cs1 (stereo not shown) [Cpd 135, methyl 2-(1-(2-ethyl-3-((4-(4-fluorophenyl)thiazol-2-yl)(methyl)amino)imidazo[1,2-b]pyridazin-6-yl)pyrrolidin-3-ylamino)acetate] | 500 to 1000 nM
6 | CCc1nc2ccc(N3CCC(C(=O)OC)C3)nn2c1N(C)c1nc(-c2ccc(F)cc2)cs1 (stereo not shown) [Cpd 139, 1-(2-Ethyl-3-{[4-(4-fluoro-phenyl)-thiazol-2-yl]-methyl-amino}-imidazo[1,2-b]pyridazin-6-yl)-pyrrolidine-3-carboxylic acid methyl ester] | > 1000 nM
7 | CCc1nc2ccc(N3CCC(C(=O)NCCO)C3)nn2c1N(C)c1nc(-c2ccc(F)cc2)cs1 (stereo not shown) [Cpd 140, 1-(2-ethyl-3-((4-(4-fluorophenyl)thiazol-2-yl)(methyl)amino)imidazo[1,2-b]pyridazin-6-yl)-N-(2-hydroxyethyl) pyrrolidine-3-carboxamide] | > 1000 nM
8 | CCc1nc2ccc(N3CCC(C(=O)N4CCOCC4)C3)nn2c1N(C)c1nc(-c2ccc(F)cc2)cs1 (stereo not shown) [Cpd 141, (1-(2-ethyl-3-((4-(4-fluorophenyl)thiazol-2-yl)(methyl)amino)imidazo[1,2-b]pyridazin-6-yl)pyrrolidin-3-yl)(morpholino) methanone] | > 1000 nM
9 | CCc1nc2ccc(N3CCC(N4CCNC(=O)C4)C3)nn2c1N(C)c1nc(-c2ccc(F)cc2)cs1 (stereo not shown) [Cpd 146, 4-(1-(2-ethyl-3-((4-(4-fluorophenyl)thiazol-2-yl)(methyl)amino)imidazo[1,2-b]pyridazin-6-yl)pyrrolidin-3-yl)piperazin-2-one] | 500 to 1000 nM
10 | CCc1nc2ccc(N3CCC(N4CCOCC4)C3)nn2c1N(C)c1nc(-c2ccc(F)cc2)c(CO)s1 (stereo not shown) [Cpd 148, (2-((2-ethyl-6-(3-morpholino-pyrrolidin-1-yl)imidazo[1,2-b]pyridazin-3-yl)(methyl)amino)-4-(4-fluorophenyl)thiazol-5-yl) methanol] | 500 to 1000 nM
11 | CCc1nc2ccc(N3CC(CO)C3)nn2c1N(C)c1nc(-c2ccc(F)cc2)cs1 [Cpd 153, (1-(2-ethyl-3-((4-(4-fluorophenyl)thiazol-2-yl)(methyl)amino)imidazo[1,2-b]pyridazin-6-yl)azetidin-3-yl)methanol] | > 1000 nM
12 | CCc1nc2ccc(N3CC(NCC(=O)N4CC(O)C4)C3)nn2c1N(C)c1nc(-c2ccc(F)cc2)cs1 [Cpd 155, 2-(1-(2-ethyl-3-((4-(4-fluorophenyl)thiazol-2-yl)(methyl)amino)imidazo[1,2-b]pyridazin-6-yl)azetidin-3-ylamino)-1-(3-hydroxyazetidin-1-yl)ethanone] | 100 to 500 nM
13 | CCc1nc2ccc(N3CC(NCC(=O)N(C)C)C3)nn2c1N(C)c1nc(-c2ccc(F)cc2)cs1 [Cpd 156, 2-(1-(2-ethyl-3-((4-(4-fluorophenyl)thiazol-2-yl)(methyl)amino)imidazo[1,2-b]pyridazin-6-yl)azetidin-3-ylamino)-N,N-dimethylacetamide] | 500 to 1000 nM
14 | CCc1nc2ccc(N3CC(NCC(=O)NC)C3)nn2c1N(C)c1nc(-c2ccc(F)cc2)cs1 [Cpd 157, 2-(1-(2-ethyl-3-((4-(4-fluorophenyl)thiazol-2-yl)(methyl)amino)imidazo[1,2-b]pyridazin-6-yl)azetidin-3-ylamino)-N-methylacetamide] | 500 to 1000 nM
15 | CCc1nc2ccc(N3CC(NS(C)(=O)=O)C3)nn2c1N(C)c1nc(-c2ccc(F)cc2)cs1 [Cpd 158, N-(1-(2-ethyl-3-((4-(4-fluorophenyl)thiazol-2-yl)(methyl)amino)imidazo[1,2-b]pyridazin-6-yl)azetidin-3-yl)methane-sulfonamide] | 500 to 1000 nM
16 | CCc1nc2ccc(N3CC(C(=O)N4CCC(O)C4)C3)nn2c1N(C)c1nc(-c2ccc(F)cc2)cs1 (stereo not shown) [Cpd 159, (1-(2-ethyl-3-((4-(4-fluorophenyl)thiazol-2-yl)(methyl)amino)imidazo[1,2-b]pyridazin-6-yl)azetidin-3-yl)(3-hydroxypyrrolidin-1-yl)methanone] | > 1000 nM
17 | CCc1nc2ccc(N3CCN(CC4CNC(=O)O4)CC3)nn2c1N(C)c1nc(-c2ccc(F)cc2)c(C#N)s1 (stereo not shown) [Cpd 160, 2-((2-ethyl-6-(4-((2-oxooxazolidin-5-yl)methyl)piperazin-1-yl)imidazo[1,2-b]pyridazin-3-yl)(methyl)amino)-4-(4-fluorophenyl) thiazole-5-carbonitrile] | 0.01 to 100 nM
18 | CCc1nc2ccc(N3CCN(S(C)(=O)=O)[C@H](CO)C3)nn2c1N(C)c1nc(-c2ccc(F)cc2)c(C#N)s1 [Cpd 161, (S)-2-((2-ethyl-6-(3-(hydroxymethyl)-4-(methylsulfonyl)piperazin-1-yl)imidazo[1,2-b]pyridazin-3-yl)(methyl)amino)-4-(4-fluorophenyl) thiazole-5-carbonitrile] | 100 to 500 nM
19 | CCc1nc2ccc(N3CCCC4(CNC(=O)O4)C3)nn2c1N(C)c1nc(-c2ccc(F)cc2)c(C#N)s1 (stereo not shown) [Cpd 162, 2-((2-ethyl-6-(2-oxo-1-oxa-3,7-diazaspiro[4.5]decan-7-yl)imidazo [1,2-b]pyridazin-3-yl)(methyl)amino)-4-(4-fluorophenyl) thiazole-5-carbonitrile] | 100 to 500 nM
20 | CCc1nc2ccc(N3CCCC4(CN(C)C(=O)O4)C3)nn2c1N(C)c1nc(-c2ccc(F)cc2)c(C#N)s1 (stereo not shown) [Cpd 163, 2-((2-ethyl-6-(3-methyl-2-oxo-1-oxa-3,7-diazaspiro[4.5]decan-7-yl)imidazo [1,2-b]pyridazin-3-yl)(methyl)amino)-4-(4-fluorophenyl) thiazole-5-carbonitrile] | > 1000 nM
21 | CCc1nc2ccc(N3CCC4(CN(C)C(=O)O4)C3)nn2c1N(C)c1nc(-c2ccc(F)cc2)c(C#N)s1 (stereo not shown) [Cpd 164, 2-((2-ethyl-6-(3-methyl-2-oxo-1-oxa-3,7-diazaspiro[4.4]nonan-7-yl)imidazo[1,2-b]pyridazin-3-yl)(methyl)amino)-4-(4-fluorophenyl) thiazole-5-carbonitrile] | 100 to 500 nM
22 | CCc1nc2ccc(N3CCC4(CCN(C(=O)OC(C)(C)C)C4)C3)nn2c1N(C)c1nc(-c2ccc(F)cc2)c(C#N)s1 (stereo not shown) [Cpd 165, tert-butyl 7-(3-((5-cyano-4-(4-fluorophenyl)thiazol-2-yl)(methyl)amino)-2-ethylimidazo[1,2-b]pyridazin-6-yl)-2,7-diazaspiro[4.4] nonane-2-carboxylate] | 100 to 500 nM
23 | CCc1nc2ccc(N3CCC4(CCNC4)C3)nn2c1N(C)c1nc(-c2ccc(F)cc2)c(C#N)s1 (stereo not shown) [Cpd 166, 2-((2-ethyl-6-(2,7-diazaspiro[4.4]nonan-2-yl)imidazo[1,2-b]pyridazin-3-yl)(methyl)amino)-4-(4-fluorophenyl) thiazole-5-carbonitrile] | 100 to 500 nM
24 | CCc1nc2ccc(N3CCC4(CCN(C(C)=O)C4)C3)nn2c1N(C)c1nc(-c2ccc(F)cc2)c(C#N)s1 (stereo not shown) [Cpd 167, 2-((6-(7-acetoyl-2,7-diazaspiro[4.4]nonan-2-yl)-2-ethylimidazo[1,2-b]pyridazin-3-yl)(methyl)amino)-4-(4-fluorophenyl) thiazole-5-carbonitrile] | 0.01 to 100 nM
25 | CCc1nc2ccc(N3CCC(O)(CNC(=O)OC)C3)nn2c1N(C)c1nc(-c2ccc(F)cc2)c(C#N)s1 (stereo not shown) [Cpd 168, methyl (1-(3-((5-cyano-4-(4-fluorophenyl)thiazol-2-yl)(methyl)amino)-2-ethylimidazo[1,2-b]pyridazin-6-yl)-3-hydroxypyrrolidin-3-yl)] | 0.01 to 100 nM
26 | CCc1nc2ccc(N3CCC(O)(CNC(C)=O)C3)nn2c1N(C)c1nc(-c2ccc(F)cc2)c(C#N)s1 (stereo not shown) [Cpd 169, N-((1-(3-((5-cyano-4-(4-fluorophenyl)thiazol-2-yl)(methyl)amino)-2-ethylimidazo[1,2-b]pyridazin-6-yl)-3-hydroxypyrrolidin-3-yl)methyl)acetamide] | 0.01 to 100 nM
27 | CCc1nc2ccc(N3CCC(O)(CNC(=O)C(C)C)C3)nn2c1N(C)c1nc(-c2ccc(F)cc2)c(C#N)s1 (stereo not shown) [Cpd 170, N-((1-(3-((5-cyano-4-(4-fluorophenyl)thiazol-2-yl)(methyl)amino)-2-ethylimidazo[1,2-b]pyridazin-6-yl)-3-hydroxypyrrolidin-3-yl)methyl) isobutyramide] | 100 to 500 nM
28 | CCc1nc2ccc(N3CCC(CO)C3)nn2c1N(C)c1nc(-c2ccc(F)cc2)c(C#N)s1 (stereo not shown) [Cpd 173, 2-((2-ethyl-6-(3-(hydroxymethyl)pyrrolidin-1-yl)imidazo[1,2-b]pyridazin-3-yl)(methyl)amino)-4-(4-fluorophenyl) thiazole-5-carbonitrile] | 100 to 500 nM
